# Structures can show the parent of a compound that is named as a salt.
# System: collagen production induced by TGF-β (NHDF cells)
# Assay: Inhibitory effect on collagen production induced by TGF-β, [3H] proline uptake (NHDF cells)
# Format: cell-based, human
# Settings: TGF-β1 3 ng/ml; for inhibition at 3 µM / inhibition at 10 µM / inhibition at 1 µM: Homo sapiens, NHDF
# Method: As an index of collagen production, the uptake of [^3H] proline was measured.
# Using a 96-well microplate, normal human skin derived fibroblast (NHDF, 10^4/well) or human embryonic lung fibroblast (TIG-3, 10^4/well) were cultured in a 10% fetal calf serum (FCS)-containing Dulbecco's modified Eagle medium (DMEM) for one day. After removing the culture supernatant, the cells were washed once with a 0.1% bovine serum albumin (BSA)-containing DMEM medium and then cultured in the 0.1% bovine serum albumin (BSA)-containing DMEM medium for one day. After adding each of the test compounds in each concentration (1, 3, 10 μM), the cells were cultured and, after adding TGF-β1 (3 ng/ml) and [^3H] proline (18.5 kBq/well), the cells were further cultured for additional one day.
# After removing the culture supernatant, the cells were washed twice with a phosphate buffer solution (PBS) and dissolved with 0.3M NaOH and 1% sodium dodecylsulfate (SDS), and then each protein fraction was precipitated with trichloroacetic acid (TCA) After the precipitate was filtered through a glass filter (GF/B) and washed, the quantity of [^3H] proline on the glass filter was measured by a liquid scintillation counter. The number of cells was measured by a cell growth measuring kit (XTT, Roche) and the uptake of [^3H] proline was corrected by the number of cells. Inhibitory ratio was calculated as compared with the case where a difference between the uptake of [^3H] proline with or without TGF-β1.
Compound,inhibition at 3 µM (3 μM),inhibition at 1 µM (1 μM),further results
"CN(CCC(O)c1ccccc1)C(=O)/C=C/c1c(-c2ccc(F)cc2)n(C)c2ccccc12 (stereo not shown) [Example 110, (2E)-N-methyl-N-(3-hydroxy-3-phenylpropyl)-3-[1-methyl-2-(4-fluorophenyl)-1H-indol-3-yl]acrylamide]",66%,,inhibition at 10 µM (10 μM): 143%
"COc1cccc2c(/C=C/C(=O)N(C)CCC(O)c3ccccc3)c(-c3ccccc3)n(C)c12 (stereo not shown) [Example 111, (2E)-N-methyl-N-(3-hydroxy-3-phenylpropyl)-3-(1-methyl-2-phenyl-7-methoxy-1H-indol-3-yl)acrylamide]",82%,,inhibition at 10 µM (10 μM): 168%
"CCOC(=O)C1CCCCC1NC(=O)c1cnc(N2CCN(C(=O)c3c(-c4ccccc4)n(C)c4ccc(C)cc34)CC2)cn1 (stereo not shown) [Example 127, Ethyl 2-{N-[(5-{4-[(1,5-dimethyl-2-phenyl-1H-indol-3-yl)carbonyl]piperazin-1-yl}pyrazin-2-yl)carbonyl]amino}-1-cyclohexanecarboxylate]",78%,72%,
"COC(=O)c1ccc(-c2c(/C=C/C(=O)N(C)C3CCN(C)CC3)c3cc(C)ccc3n2C)cc1 [Example 143, (2E)-N-methyl-N-(1-methylpiperidin-4-yl)-3-[1,5-dimethyl-2-(4-carbomethoxyphenyl)-1H-indol-3-yl]acrylamide]",104%,42%,
"COc1cc2c(cc1OC)CN(C(=O)/C=C/c1c(-c3ccccc3)[nH]c3ncccc13)CC2 [Example 138, 6,7-dimethoxy-2-[(2E)-3-(2-phenyl-1H-pyrrolo[2,3-b]pyridin-3-yl)prop-2-enoyl]-1,2,3,4-tetrahydroisoquinoline dihydrochloride]",53%,65%,
"COc1ccc(-c2c(/C=C/C(=O)N3CCc4cc(OC)c(OC)cc4C3)c3cccnc3n2C)cc1OC [Example 131, 2-{(2E)-3-[1-methyl-2-(3,4-dimethoxyphenyl)-1H-pyrrolo[2,3-b]pyridin-3-yl]prop-2-enoyl}-6,7-dimethoxy-1,2,3,4-tetrahydroisoquinoline hydrochloride]",141%,96%,
"Cn1c(-c2ccccc2)c(/C=C/C(=O)NCC2CN(Cc3ccc(F)cc3)CCO2)c2ccccc21 (stereo not shown) [Example 30, (2E)-N-{[4-(4-fluorobenzyl)morpholin-2-yl]methyl}-3-(1-methyl-2-phenyl-1H-indol-3-yl)acrylamide hydrochloride]",94%,41%,inhibition at 10 µM (10 μM): 148%
"COc1cc2c(cc1OC)CN(C(=O)/C=C/c1c(-c3ccc(F)cc3)n(C)c3ncccc13)CC2 [Example 140, 2-{(2E)-3-[1-methyl-2-(4-fluorophenyl)-1H-pyrrolo[2,3-b]pyridin-3-yl]prop-2-enoyl}-6,7-dimethoxy-1,2,3,4-tetrahydroisoquinoline hydrochloride]",171%,140%,
"Cc1ccc2c(c1)c(C(=O)N1CCN(c3cnc(C(=O)N(C)[C@@H](Cc4ccccc4)C(=O)O)cn3)CC1)c(-c1ccccc1)n2C [Example 132, N-methyl-N-[(5-{4-[(1,5-dimethyl-2-phenyl-1H-indol-3-yl)carbonyl]piperazin-1-yl}pyrazin-2-yl)carbonyl]-(S)-phenylalanine]",122%,67%,
"COc1cc2c(cc1OC)CN(C(=O)/C=C/c1c(-c3ccccc3)n(C)c3ncc(C)cc13)CC2 [Example 123, 2-[(2E)-3-(1,5-dimethyl-2-phenyl-1H-pyrrolo[2,3-b]pyridin-3-yl)prop-2-enoyl]-6,7-dimethoxy-1,2,3,4-tetrahydroisoquinoline hydrochloride]",125%,55%,
"CC1c2cc(O)c(O)cc2CCN1C(=O)/C=C/c1c(-c2ccccc2)n(C)c2cc3c(cc12)OCO3 (stereo not shown) [Example 117, 2-{(2E)-3-[1-methyl-2-phenyl-(5,6-methylenedioxy)-1H-indol-3-yl]prop-2-enoyl}-1-methyl-6,7-dihydroxy-1,2,3,4-tetrahydroisoquinoline]",,,Inhibitory effect on collagen production induced by TGF-β (% inhibition) (3 μM): 82%; Inhibitory effect on collagen production induced by TGF-β (% inhibition) (10 μM): 140%
"Cc1cnc2c(c1)c(C(=O)N1CCN(c3cnc(C(=O)NCCc4scnc4C)cn3)CC1)c(-c1ccccc1)n2C [Example 148, 5-{4-[(1,5-dimethyl-2-phenyl-1H-pyrrolo[2,3-b]pyridin-3-yl)carbonyl]piperazin-1-yl}-N-[2-(4-methyl-1,3-thiazol-5-yl)ethyl]pyrazine-2-carboxamide trihydrochloride]",53%,29%,
"CCOC(=O)C1CCCC1NC(=O)c1cnc(N2CCN(C(=O)c3c(-c4ccccc4)n(C)c4ccc(C)cc34)CC2)cn1 (stereo not shown) [Example 129, Ethyl 2-{N-[(5-{4-[(1,5-dimethyl-2-phenyl-1H-indol-3-yl)carbonyl]piperazin-1-yl}pyrazin-2-yl)carbonyl]amino}-1-cyclopentanecarboxylate]",73%,75%,
"COc1cc2c(cc1OC)C(CC(=O)O)N(C(=O)/C=C/c1c(-c3ccccc3)n(C)c3ncccc13)CC2.Cl (stereo not shown) [Example 134, {6,7-dimethoxy-2-[(2E)-3-(1-methyl-2-phenyl-1H-pyrrolo[2,3-b]pyridin-3-yl)prop-2-enoyl]-1,2,3,4-tetrahydroisoquinolin-1-yl}acetic acid hydrochloride]",,,Inhibitory effect on collagen production induced by TGF-β (% inhibition) (1 μM): 90%; Inhibitory effect on collagen production induced by TGF-β (% inhibition) (3 μM): 111%
"CC(=O)C1(c2ccccc2)CCN(C(=O)C=Cc2c(-c3ccc(C(=O)O)cc3)n(C)c3ccc(C)cc23)CC1 [Example 146, 4-{3-[3-(4-acetyl-4-phenylpiperidin-1-yl)-3-oxo-1-propenyl]-1,5-dimethyl-1H-indol-2-yl}benzoic acid]",60%,43%,
"COc1ccc(N2CCN(C(=O)/C=C/c3c(-c4ccccc4)n(C)c4ncccc34)CC2)cc1 [Example 98, 1-[(2E)-3-(1-methyl-2-phenyl-1H-pyrrolo[2,3-b]pyridin-3-yl)prop-2-enoyl]-4-(4-methoxyphenyl)piperazine]",92%,47%,
"Cc1ncsc1CCNC(=O)c1cnc(N2CCN(C(=O)c3c(-c4ccccc4)n(C)c4ccc(F)cc34)CC2)cn1 [Example 147, 5-{4-[(5-fluoro-1-methyl-2-phenyl-1H-indol-3-yl)carbonyl]piperazin-1-yl}-N-[2-(4-methyl-1,3-thiazol-5-yl)ethyl]pyrazine-2-carboxamide dihydrochloride]",59%,29%,
"COc1cccc(-c2c(/C=C/C(=O)N(C)CCC(O)c3ccccc3)c3ccccc3n2C)c1 (stereo not shown) [Example 118, (2E)-N-methyl-N-(3-hydroxy-3-phenylpropyl)-3-[1-methyl-2-(3-methoxyphenyl)-1H-indol-3-yl]acrylamide]",81%,,inhibition at 10 µM (10 μM): 147%
"COC(=O)c1ccc(-c2c(/C=C/C(=O)N3CCC(C(C)=O)(c4ccccc4)CC3)c3cc(C)ccc3n2C)cc1 [Example 141, 4-acetyl-1-{(2E)-3-[1,5-dimethyl-2-(4-carbomethoxyphenyl)-1H-indol-3-yl]prop-2-enoyl}-4-phenylpiperidine]",114%,111%,
"COc1ccc(CCN(C)C(=O)/C=C/c2c(-c3ccc4c(c3)OCO4)n(C)c3ccccc23)cc1OC [Example 115, (2E)-N-methyl-N-[2-(3,4-dimethoxyphenyl)ethyl]-3-[1-methyl-2-(3,4-methylenedioxyphenyl)-1H-indol-3-yl]acrylamide]",84%,,inhibition at 10 µM (10 μM): 155%
"COc1cc2c(cc1OC)CN(C(=O)/C=C/c1c(-c3ccccc3)n(C)c3nccnc13)CC2 [Example 128, 2-[(2E)-3-(5-methyl-6-phenyl-5H-pyrrolo[2,3-b]pyrazin-7-yl)prop-2-enoyl]-6,7-dimethoxy-1,2,3,4-tetrahydroisoquinoline hydrochloride]",76%,61%,
"Cc1ccc2c(c1)c(C(=O)N1CCN(c3cnc(C(=O)NCCc4ccc(O)cc4)cn3)CC1)c(-c1ccccc1)n2C [Example 145, 5-{4-[(1,5-dimethyl-2-phenyl-1H-indol-3-yl)carbonyl]piperazin-1-yl}-N-[2-(4-hydroxyphenyl)ethyl]pyrazine-2-carboxamide hydrochloride]",64%,55%,
"CCOC(=O)C1CCCC1NC(=O)/C=C/c1c(-c2ccccc2)n(C)c2ncccc12 (stereo not shown) [Example 126, Ethyl 2-{N-[(2E)-3-(1-methyl-2-phenyl-1H-pyrrolo[2,3-b]pyridin-3-yl)prop-2-enoyl]amino}-1-cyclopentanecarboxylate]",86%,29%,
"COc1cc2c(cc1OC)CN(C(=O)/C=C/c1c(-c3ccncc3)n(C)c3ncccc13)CC2 [Example 135, 2-{(2E)-3-[1-methyl-2-(4-pyridyl)-1H-pyrrolo[2,3-b]pyridin-3-yl]prop-2-enoyl}-6,7-dimethoxy-1,2,3,4-tetrahydroisoquinoline dihydrochloride]",110%,78%,

# Reference: US20050014942A1, “Amide derivatives and drugs” (priority 2001, published 2005)
